The results in this text go back to patent US9403873B2, “Peptides targeting receptor activator of nuclear factor-κB (RANK) and their applications” (UNIVERSITE DE NANTES, priority 2011, dated 2016).

Entries after “also recorded” stand apart in the source; their conditions may differ. Ends that are not written are not given here.

One data set concerns monocytes. The experiment in a line: Cytotoxicity on monocytes. In kind it is cell-based. As to conditions: 100 μM.
Data set [1] concerns RANKL-induced signaling (Akt, p38, ERK, NF-κB) in RAW264.7 cells. The experiment in a line: Western blot of RANKL-induced signaling in RAW264.7 cells. In kind it is cell-based, murine. Here is the method: After treatment for 5, 10, 15, 30 or 60 minutes at 37° C., total cell lysates were obtained and protein concentrations were determined as described previously (Duplomb et al. 2008). For NF-κB pathway analysis, separate cytoplasmic and nuclear protein fractions were obtained using the NE-PER Nuclear and Cytoplasmic Extraction Kit (Thermo Scientific, UK). Proteins (40 μg) were run on 10% SDS—PAGE and transferred to Immobilon-P membranes (Millipore, Billerica, Mass., USA), which were then incubated with antibodies to Akt, phospho-Akt, ERK 1/2, phospho-ERK 1/2, p38, phospho-p38, IκBα, p105, p65, p50 and Rel B (Cell Signalling, Danvers, Mass., USA). The labeled proteins were detected using the ECL reagent (Pierce, Rockford, Ill., USA). β-Actin (total cell extract or cytoplasmic fraction), histone H3, and HDAC (nuclear fraction) were used as housekeeping proteins (Cell Signalling).
Murine RAW264.7 cells (ATCC) were cultured in αMEM (Invitrogen) supplemented with 10% FBS (Hyclone). Human embryonic kidney 293 cells (ATCC) were stably transduced with an expression-ready clone (Ex-00007-Lv105, OmicsLink™ Expression Clone, GeneCopoeia™) containing the ORF cDNA of RANK/TNFRSF11A. HEK-RANK cells were maintained in DMEM (Lonza), 10% FBS and 1 μg/mL puromycin.
In general terms: A western blot detects proteins with antibodies after separation by electrophoresis.

Data set [2] relates to ovariectomized C57BL/6 mice. The data set is described as follows: Toxicity in ovariectomized mice (body weight, organ histology). The format is in vivo, mouse. The following applies: 10 mg/kg/day. How it is done: During the experimental period, the body weight of the mice was monitored. […] After treatment for five weeks, mice were anesthetized with isoflurane (2%, 1 L/min) and sacrificed by cervical dislocation. Lumbar vertebrae and tibiae were collected for micro-CT analysis and stored at 4° C. in 4% paraformaldehyde until further analysis. Additionally, internal organs (heart, liver, lungs, kidneys, spleen, intestines and thymus) of some mice (n=3 per group) were harvested and stored for toxicity screening.
After sacrifice, organs were conserved and fixed in 4% PFA at 4° C., and embedded in paraffin. Sections (4 μm) were cut and stained with hematoxylin and eosin (Lamoureux et al. 2009, Baud′Huin et al. 2010). General morphology of organs was evaluated on each section using a DMRXA microscope (Leica, Nussloch, Germany).

For another data set, the target named is T1, hRANK (Homo sapiens, UniProt Q9Y6Q6).
T1 construct: For NMR experiments with soluble RANK receptor-Fc (R&D Systems); purchased R&D Systems
T1 sequence (Q9Y6Q6 30-212 limits assumed): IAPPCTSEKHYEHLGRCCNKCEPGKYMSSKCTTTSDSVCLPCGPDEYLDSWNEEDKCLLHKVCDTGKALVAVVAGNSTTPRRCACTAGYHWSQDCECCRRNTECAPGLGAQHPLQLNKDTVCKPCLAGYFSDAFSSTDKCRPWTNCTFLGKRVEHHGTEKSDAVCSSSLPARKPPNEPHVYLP
The experiment in a line: Saturation transfer difference (STD) NMR of Pep8 binding to RANK. The following applies: Pep8:RANK-Fc 100:1 to 1000:1, phosphate buffer. Here is the method: NMR experiments were run at 500.13 MHz for ^1H on a Bruker AVANCE 500 spectrometer with a Linux PC workstation, using standard 5 mm or Shigemi 3 mm tubes with susceptibility matched to solvent ^2H2O/Water sample tubes. The spectra of the polypeptide Pep8 at 0.1, 0.2, 0.4 or 1 mM sample concentrations were recorded in 50 mM sodium phosphate buffer at pH 7.4, prepared in 95% H2O and 5% ^2H2O. Two-dimensional NMR spectra were recorded in the phase-sensitive mode using the States—TPPI method (States et al. 1982). […] The two-dimensional COSY, TOCSY and NOESY spectra were recorded at 280 K. TOCSY spectra were recorded using a MLEV-17 spin-lock sequence (Bax et al. 1985) with a mixing time (τm) of 35 and 70 ms, respectively. 2D NOESY experiments were recorded at a mixing time (τm) of 100, 200 or 500 ms. The heteronuclear spectra ^1H-^13C HSQC were recorded at 280 K in the same conditions. […] Transferred nuclear Overhauser effect (TRNOESY) spectra of Pep8 with RANK receptor-Fc protein were recorded using a mixing time (Tm) of 100, 200 or 500 ms.
^1D ^1H STD NMR spectra of the polypeptide—protein mixtures were recorded at 500 MHz with 4K scans and selective saturation of protein resonances as described previously (Pons et al. 2011). […]

[3] abbreviates: 50 μM, 15 minutes of RANKL treatment.

As to NVLKLCSGE [Pep8, NVLKLCSGE], the cytotoxic effect result in the data set with monocytes was “no cytotoxic effect”. Also, in data set [1] (50 μM), the “RANKL-induced degradation of IκBα and nuclear translocation of p50 and p65” value is “blocked”; the “expression levels of RelB in cytoplasmic and nuclear fraction” value was “no effect”. The “RANKL-induced Akt phosphorylation” value in data set [1] (50 μM, 5 minutes of RANKL treatment) is “exhibited an inhibitory effect”. In addition, in data set [1] (setting [3]), the “RANKL-induced phosphorylation of ERK” value was “inhibited phosphorylation” and the “RANKL-induced phosphorylation of p38” value is recorded as “inhibited phosphorylation”. Moreover, in data set [1] (absence of RANKL stimulation), the “basal phosphorylation of p38” value is on record as “decreased phosphorylation of p38 even in the absence of RANKL stimulation”. In addition, the “histopathological evaluation of major organs” value in data set [2] (5 weeks, heart, lungs, liver, kidneys, spleen, skin) is “No histomorphological difference; also recorded: no toxic effects”. In data set [2] (35 days), the “effect on body weight in OVX mice” value is on record as “no effect”. Also, at hRANK, the “STD relative transfer ratio of residues C6S7” value was found to be 60% and the “STD saturation received by residues L3K4L5” value came to 100%.
